Publication PMC8868508, “Kassporin-KS1: A Novel Pentadecapeptide from the Skin Secretion of Kassina senegalensis: Studies on the Structure-Activity Relationships of Site-Specific “Glycine-Lysine” Motif Insertions” (Antibiotics, 2022)
Values after ≈ are worked out from the molar mass of the structure shown. Read-outs that look alike come from different tables or passages of the source. Where a SMILES comes first, the peptide text is derived from it.

What was measured:
[1] = tested on: S. aureus NCTC 10788; format: cell-based, Staphylococcus aureus
Protocol: (§1) The inhibition of representative microorganisms by peptides was evaluated by the modified broth dilution technique. The microorganisms included Candida albicans (C. albicans, NCTC 10231), Enterococcus faecalis (E. faecalis, NCTC 12697), Staphylococcus aureus (S. aureus, NCTC 10788), Klebsiella pneumoniae (K. pneumoniae, ATCC 43816), Methicillin-resistant Staphylococcus aureus (MRSA, ATCC 12493), Pseudomonas aeruginosa (P. aeruginosa, ATCC 27853), and Escherichia coli (E. coli, NCTC 10418).
(§2) Firstly, the selected microorganism was incubated in conical flasks with 100 mL Mueller Hinton broth (MHB) overnight. Then, the bacterial solution was sub-cultured in 20 mL MHB until it reached the logarithmic growth phase. Meanwhile, the peptide solution was prepared. The peptide was dissolved into 128 × 10^2 μM solution with phosphate-buffered saline (PBS) and then double-diluted into 64, 32, 16, 8, 4, 2, and 1 × 10^2 μM. Each sample solution and positive control ([…] Norfloxacin) was added to 96-well plates and divided into five replicates, 1 μL per well. The blank control was 100 µL MHB, and the growth control was 100 µL bacterial solutions. When the optical density (OD) value corresponding to the microbial concentration reached the value (Gram-positive bacteria: 0.23; Gram-negative bacteria: 0.4; fungi: 0.15) in their logarithmic growth phase, the microorganisms were diluted to the required concentration with MHB (Gram-negative and Gram-positive bacteria: 5 × 10^5 CFU/mL; fungi: 1 × 10^6 CFU/mL).
(§3) The diluted bacterial solution was then added to the 96-well plate at 99 µL per well. The plate was incubated at 37 °C and observed the next day. The MIC was the corresponding lowest peptide concentration without microbial growth. The absorbance of the 96-well plate at 550 nm was measured by Synergy HT Microplate Spectrophotometer (Biotech, Minneapolis, MN, USA), and the obtained values were quantitatively analyzed by Prism 7 software. Subsequently, the concentrations corresponding to the clear solution were removed from the 96-well plate in 10 µL and dropped onto the solidified MHA. The Petri dishes with MHA were cultured overnight, observed and the minimum peptide concentration without colonies was MBC.

[2] = tested on: E. coli NCTC 10418; format: cell-based, Escherichia coli
Protocol: as §1, §2, §3

[3] = tested on: C. albicans NCTC 10231; format: cell-based, Candida albicans
Protocol: as §1, §2, §3

[4] = tested on: MRSA NCTC 12493; format: cell-based, Methicillin-resistant Staphylococcus aureus
[5] = tested on: K. pneumoniae ATCC 43816; format: cell-based, Klebsiella pneumoniae
Protocol: as §1, §2, §3

[6] = tested on: E. faecalis NCTC 12697; format: cell-based, Enterococcus faecalis
Protocol: as §1, §2, §3

[7] = tested on: P. aeruginosa ATCC 27853; format: cell-based, Pseudomonas aeruginosa
Protocol: as §1, §2, §3

[8] = tested on: S. aureus NCTC 10788 biofilm; format: cell-based, Staphylococcus aureus; conditions: NCTC 10788, 24 h
Protocol: (§4) As previously described, the MBIC and MBEC of the peptides against bacteria were determined. Staphylococcus aureus (S. aureus, NCTC 10788) and Escherichia coli (E. coli, NCTC 10418) was selected as representative strains. For the MBIC assay, the cultures were sub-cultured to their logarithmic growth phases. The diluted bacterial suspension was incubated with the peptide solution overnight in a 96-well plate. The resulting biofilm was washed with PBS solution, fixed with methanol, and dried. The biofilm was then stained with 0.1% (w/v) crystal violet, washed again with PBS, and dissolved in 30% acetic acid. The absorbance of the solution in each well at 595 nm was counted by the Synergy HT Microplate Spectrophotometer (Biotech, Minneapolis, MN, USA). Compared with the negative control, the lowest concentration that inhibits biofilm formation was MBIC. For the determination of MBEC, the diluted bacterial solution was incubated in the 96-well plate for 24 h, with 100 µL per well. Then, the biofilm was washed and re-incubated with 100 µL peptide-medium solution. After 24 h, the biofilm was again washed, stained, and dissolved as in the MBIC assay. Each well was detected at 595 nm by the same plate reader in MBIC. Compared with the negative control, the lowest concentration to eliminate biofilm was MBEC.

[9] = tested on: E. coli NCTC 10418 biofilm; format: cell-based, Escherichia coli; conditions: NCTC 10418, 24 h
Protocol: as §4

[10] = tested on: S. aureus NCTC 10788; format: cell-based, Staphylococcus aureus; remark: listed apart in the source
Protocol: As mentioned in the previous study, the salt and pH sensitivities of AMPs exposed to physiological concentrations of salts or non-neutral environments were tested. MHB containing different ion concentrations (150 mM NaCl, 1 mM MgCl2, and 4 μM FeCl3) and MHB with pH 6.0 and pH 8.0 were prepared. The selected microorganism Staphylococcus aureus (S. aureus, NCTC 10788) was incubated overnight in the prepared medium, sub-cultured to the logarithmic phase, and then diluted to 5 × 10^5 CFU/mL. The subsequent steps were carried out as the MIC/MBC assay.

[11] = tested on: S. aureus infected Galleria mellonella larvae; conditions: in vivo
Protocol: Galleria mellonella larvae of equal weight were injected with bacterial suspensions to observe the peptides’ efficacy. First, the wax worm larvae were weighed (Livefood UK Ltd., Rooks Bridge, UK). The appropriate weight for the assay was 250 ± 25 mg. Then, S. aureus NCTC 10788 was cultured in sterilized saline until the bacterial suspension density reached 10^8 CFU/mL. […] Then, 10 µL peptide solutions were injected into the larvae at 6, 12, and 24 mg/kg. The positive control was the dosage of 20 mg/kg Vancomycin. The negative control was the administration of saline. In total, nine wax worms were included in each group. After being injected, the number of larvae deaths was recorded every 12 h until it reached 120 h.

In the case of `CC[C@H](C)[C@H](NC(=O)[C@H](C)NC(=O)[C@H](CCC(=O)O)NC(=O)[C@H](CCC(N)=O)NC(=O)[C@@H](NC(=O)[C@H](CC(C)C)NC(=O)[C@H](C)NC(=O)[C@H](CC(C)C)NC(=O)[C@H](C)NC(=O)[C@H](CC(C)C)NC(=O)[C@@H](N)Cc1ccccc1)[C@@H](C)CC)C(=O)N[C@@H](C)C(=O)N[C@@H](CCCCN)C(=O)N[C@@H](CC(C)C)C(=O)N[C@@H](CCCCN)C(N)=O` [QUB-1641] (H-FLALALIQEAIAKLK-NH2), the MBC [1] is reported as 64 µM, the MIC [1] is reported as 64 µM and the MBC [2] is reported as > 128 µM. For the same compound, the MIC [2] was > 128 µM, the MBC [3] was > 128 µM and the MIC [3] was > 128 µM. The MBC [4] was 128 µM (≈ 210 µg/mL), the MIC [4] was 64 µM (≈ 105 µg/mL) and the MBC [5] was > 128 µM. The MIC [5] was > 128 µM, the MBC [6] was 128 µM and the MIC [6] was 64 µM. The MBC [7] was > 128 µM, the MIC [7] was > 128 µM and the MBEC [8] was 128/>128 µM. For the same compound, the MBIC [8] was 128/>128 µM, the MBEC [9] was >128/>128 µM and the MBIC [9] was >128/>128 µM. The MBC [10] was > 128 µM and the “effect of injection on larvae” value [11] was “causing the larvae to die directly after injection”.
